Columns and labels:
Assay in all cases: Greenhouse herbicidal activity assay, post-emergence
Type in all cases: in vivo
Cyperus iria = settings: Post-emergence test, rate 150 g a.i./hm^2, grade by fresh weight inhibition rate; for pest or weed control at 150 g/ha: Cyperus iria, read-out: Control efficacy grade, Cyperus iria
How it was run: (§1)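 Graded A (≥80%) to E (<20%) by fresh weight inhibition, read 14-21 days after spraying. Plants were pot-grown in a growth chamber and received foliar application at the 3-6 leaf stage, being air-dried and returned to the chamber afterwards.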

Eclipta prostrata = settings: Post-emergence test, rate 150 g a.i./hm^2, grade by fresh weight inhibition rate; for pest or weed control at 150 g/ha: Eclipta prostrata, read-out: Control efficacy grade, Eclipta prostrata
How it was run: as §1

Echinochloa crusgalli = settings: Post-emergence test, rate 150 g a.i./hm^2, grade by fresh weight inhibition rate; for pest or weed control at 150 g/ha: Echinochloa crus-galli, read-out: Control efficacy grade, Echinochloa crusgalli
How it was run: as §1

Leptochloa chinensis = settings: Post-emergence test, rate 150 g a.i./hm^2, grade by fresh weight inhibition rate; for pest or weed control at 150 g/ha: Dinebra chinensis, read-out: Control efficacy grade, Leptochloa chinensis
How it was run: as §1

Digitaria sanguinalis = settings: Post-emergence test, rate 150 g a.i./hm^2, grade by fresh weight inhibition rate; for pest or weed control at 150 g/ha: Digitaria sanguinalis, read-out: Control efficacy grade, Digitaria sanguinalis
How it was run: as §1

| SMILES | Control efficacy grade, Cyperus iria (Cyperus iria) | Control efficacy grade, Eclipta prostrata (Eclipta prostrata) | Control efficacy grade, Echinochloa crusgalli (Echinochloa crusgalli) | Control efficacy grade, Leptochloa chinensis (Leptochloa chinensis) | Control efficacy grade, Digitaria sanguinalis (Digitaria sanguinalis) | pest or weed control at 150 g/ha (Cyperus iria) | pest or weed control at 150 g/ha (Eclipta prostrata) | pest or weed control at 150 g/ha (Echinochloa crusgalli) | pest or weed control at 150 g/ha (Leptochloa chinensis) | pest or weed control at 150 g/ha (Digitaria sanguinalis) |
| --- | --- | --- | --- | --- | --- | --- | --- | --- | --- | --- |
| CS(=O)(=O)c1ccc(C(=O)Nc2nnco2)c(Cl)c1[S+]([O-])C1CCCCC1 (racemic) [Compound 3-319] | A (Fresh weight inhibition rate≥80% to 100%) | A (Fresh weight inhibition rate≥80% to 100%) | A (Fresh weight inhibition rate≥80% to 100%) | A (Fresh weight inhibition rate≥80% to 100%) | A (Fresh weight inhibition rate≥80% to 100%) | – | – | – | – | – |
| CC(C)Sc1c(S(C)(=O)=O)ccc(C(=O)Nc2ncnn2C)c1Cl [Compound 2-6, 2-chloro-3-(isopropylthio)-N-(1-methyl-1H-1,2,4-triazol-5-yl)-4-(methylsulfonyl)benzamide] | – | – | – | – | – | 80 to 100% | 80 to 100% | 80 to 100% | 80 to 100% | 80 to 260% |
| C=CCSc1c(S(C)(=O)=O)ccc(C(=O)Nc2nnco2)c1Cl [Compound 3-338] | A (Fresh weight inhibition rate≥80% to 100%) | A (Fresh weight inhibition rate≥80% to 100%) | A (Fresh weight inhibition rate≥80% to 100%) | A (Fresh weight inhibition rate≥80% to 100%) | C (Fresh weight inhibition rate≥40% to <60%) | – | – | – | – | – |
| CC(C)Sc1c(S(C)(=O)=O)ccc(C(=O)Nc2nnnn2C)c1Cl [Compound 1-6] | A (Fresh weight inhibition rate≥80% to 100%) | A (Fresh weight inhibition rate≥80% to 100%) | A (Fresh weight inhibition rate≥80% to 100%) | A (Fresh weight inhibition rate≥80% to 100%) | A (Fresh weight inhibition rate≥80% to 100%) | – | – | – | – | – |
| Cc1nonc1NC(=O)c1ccc(S(C)(=O)=O)c([S+]([O-])C2CCC2)c1Cl (racemic) [Compound 4-43] | A (Fresh weight inhibition rate≥80% to 100%) | A (Fresh weight inhibition rate≥80% to 100%) | A (Fresh weight inhibition rate≥80% to 100%) | A (Fresh weight inhibition rate≥80% to 100%) | A (Fresh weight inhibition rate≥80% to 100%) | – | – | – | – | – |
| C=C(C)C[S+]([O-])c1c(S(C)(=O)=O)ccc(C(=O)Nc2nnc(C)o2)c1Cl (racemic) [Compound 3-143] | A (Fresh weight inhibition rate≥80% to 100%) | A (Fresh weight inhibition rate≥80% to 100%) | A (Fresh weight inhibition rate≥80% to 100%) | A (Fresh weight inhibition rate≥80% to 100%) | A (Fresh weight inhibition rate≥80% to 100%) | – | – | – | – | – |
| CC(C)[S+]([O-])c1c(S(C)(=O)=O)ccc(C(=O)Nc2nnco2)c1Cl (racemic) [Compound 3-273] | A (Fresh weight inhibition rate≥80% to 100%) | A (Fresh weight inhibition rate≥80% to 100%) | A (Fresh weight inhibition rate≥80% to 100%) | A (Fresh weight inhibition rate≥80% to 100%) | A (Fresh weight inhibition rate≥80% to 100%) | – | – | – | – | – |
| CCc1nnc(NC(=O)c2ccc(S(C)(=O)=O)c([S+]([O-])C3CCCC3)c2Cl)o1 (racemic) [Compound 3-430] | A (Fresh weight inhibition rate≥80% to 100%) | A (Fresh weight inhibition rate≥80% to 100%) | A (Fresh weight inhibition rate≥80% to 100%) | A (Fresh weight inhibition rate≥80% to 100%) | A (Fresh weight inhibition rate≥80% to 100%) | – | – | – | – | – |
| C=CC[S+]([O-])c1c(S(C)(=O)=O)ccc(C(=O)Nc2nnnn2C)c1Cl (racemic) [Compound 1-68] | A (Fresh weight inhibition rate≥80% to 100%) | A (Fresh weight inhibition rate≥80% to 100%) | A (Fresh weight inhibition rate≥80% to 100%) | A (Fresh weight inhibition rate≥80% to 100%) | A (Fresh weight inhibition rate≥80% to 100%) | – | – | – | – | – |
| CCCSc1c(S(C)(=O)=O)ccc(C(=O)Nc2nnco2)c1Cl [Compound 3-267, 2-chloro-4-(methylsulfonyl)-N-(1,3,4-oxadiazol-2-yl)-3-(propylthio)benzamide] | – | – | – | – | – | 80 to 100% | 80 to 100% | 80 to 100% | 80 to 100% | 80 to 100% |
| C=CC[S+]([O-])c1c(S(C)(=O)=O)ccc(C(=O)Nc2nnco2)c1Cl (racemic) [Compound 3-339] | A (Fresh weight inhibition rate≥80% to 100%) | A (Fresh weight inhibition rate≥80% to 100%) | A (Fresh weight inhibition rate≥80% to 100%) | A (Fresh weight inhibition rate≥80% to 100%) | A (Fresh weight inhibition rate≥80% to 100%) | – | – | – | – | – |
| CCC(C)[S+]([O-])c1c(S(C)(=O)=O)ccc(C(=O)Nc2ncnn2C)c1Cl (mixture of isomers) [Compound 2-19] | A (Fresh weight inhibition rate≥80% to 100%) | A (Fresh weight inhibition rate≥80% to 100%) | A (Fresh weight inhibition rate≥80% to 100%) | A (Fresh weight inhibition rate≥80% to 100%) | A (Fresh weight inhibition rate≥80% to 100%) | – | – | – | – | – |
| CCn1nnnc1NC(=O)c1ccc(S(C)(=O)=O)c([S+]([O-])C(C)C)c1Cl (centres unmarked) [Compound 1-93, 2-chloro-N-(1-ethyl-1H-tetrazol-5-yl)-3-(isopropylsulfinyl)-4-(methylsulfonyl)benzamide] | – | – | – | – | – | 80 to 100% | 80 to 100% | 80 to 100% | 80 to 100% | 80 to 100% |
| C=C(C)CSc1c(S(C)(=O)=O)ccc(C(=O)Nc2nnc(C)o2)c1Cl [Compound 3-142] | A (Fresh weight inhibition rate≥80% to 100%) | A (Fresh weight inhibition rate≥80% to 100%) | A (Fresh weight inhibition rate≥80% to 100%) | A (Fresh weight inhibition rate≥80% to 100%) | A (Fresh weight inhibition rate≥80% to 100%) | – | – | – | – | – |
| CC(C)Sc1c(S(C)(=O)=O)ccc(C(=O)Nc2nnco2)c1Cl [Compound 3-272] | A (Fresh weight inhibition rate≥80% to 100%) | A (Fresh weight inhibition rate≥80% to 100%) | A (Fresh weight inhibition rate≥80% to 100%) | A (Fresh weight inhibition rate≥80% to 100%) | C (Fresh weight inhibition rate≥40% to <60%) | – | – | – | – | – |
| CCCCSc1c(S(C)(=O)=O)ccc(C(=O)Nc2nnc(C)o2)c1Cl [Compound 3-11] | A (Fresh weight inhibition rate≥80% to 100%) | A (Fresh weight inhibition rate≥80% to 100%) | B (Fresh weight inhibition rate≥260% to <80%) | A (Fresh weight inhibition rate≥80% to 100%) | A (Fresh weight inhibition rate≥80% to 100%) | – | – | – | – | – |
| Cn1ncnc1NC(=O)c1ccc(S(C)(=O)=O)c([S+]([O-])C2CCCC2)c1Cl (racemic) [Compound 2-43] | A (Fresh weight inhibition rate≥80% to 100%) | A (Fresh weight inhibition rate≥80% to 100%) | A (Fresh weight inhibition rate≥80% to 100%) | A (Fresh weight inhibition rate≥80% to 100%) | A (Fresh weight inhibition rate≥80% to 100%) | – | – | – | – | – |
| CS(=O)(=O)c1ccc(C(=O)Nc2nnc(C3CC3)o2)c(Cl)c1[S+]([O-])CC1CC1 (racemic) [Compound 3-647] | A (Fresh weight inhibition rate≥80% to 100%) | A (Fresh weight inhibition rate≥80% to 100%) | A (Fresh weight inhibition rate≥80% to 100%) | A (Fresh weight inhibition rate≥80% to 100%) | A (Fresh weight inhibition rate≥80% to 100%) | – | – | – | – | – |
| CC(C)[S+]([O-])c1c(S(C)(=O)=O)ccc(C(=O)Nc2ncnn2C)c1Cl (single isomer, unassigned) [Compound 2-9] | A (Fresh weight inhibition rate≥80% to 100%) | A (Fresh weight inhibition rate≥80% to 100%) | A (Fresh weight inhibition rate≥80% to 100%) | A (Fresh weight inhibition rate≥80% to 100%) | A (Fresh weight inhibition rate≥80% to 100%) | – | – | – | – | – |

Source: US20250223268A1, “4-Methylsulfonylbenzamide Compound, Preparation Method, Herbicidal Composition And Use” (Jiangsu Flag Chemical Industry Co., Ltd., priority 2022, published 2025)
